{"source": "patent US20250034523A1", "about": "“METHODS OF GENERATING HUMAN COCHLEAR HAIR CELLS” (THE TRUSTEES OF INDIANA UNIVERSITY, priority 2021, published 2025)", "system": "hESC-derived PAX2-nGFP+ otic progenitors", "assay": "ventral/dorsal otic marker expression in otic progenitors (D20 scRNA-seq, D25 immunofluorescence)", "type": "cell-based, human", "description": "PAX2-2A-nGFP/POU4F3-2A-ntdTomat hESCs (passages 22-50) were maintained and passaged in Essential 8 Flex Medium (Thermo Fisher, A2858501) supplemented with 100 μg/ml Normocin (E8fn) on recombinant human Vitronectin-N(Thermo Fisher, A14700)-coated 6-well plates. Human inner ear organoids were derived from hESCs based on the inventors' previous protocol 8.10 with major modifications. Briefly, hESCs were dissociated with StemPro Accutase (Thermo Fisher, A1110501) and distributed at 3500 cells per well onto low-adhesion 96-well U-bottom plates in 100 μL E8fn containing 20 μM Y-27632 (Stemgent, 04-0012-02) and forcibly aggregated at 120 g for 5 minutes. 100 μL of E8fn was added to each well after >4 h of incubation. Induction of non-neural epithelium occurred following 48 h of aggregation, marking differentiation day 0, as follows: aggregates were washed extensively in DMEM:F12 with HEPES buffer (DFH) (Thermo Fisher, 11320033) and transferred to new 96-well U-bottom plates in 100 μL of E6 medium (Thermo Fisher, A1516401) with Normocin (E6n) containing 4 ng mL^−1 FGF-2 (StemCell Technologies, 780003), 10 μM SB-431542 (Stemgent, 04-0010-05), and 2% growth factor reduced (GFR) Matrigel (Corning, 354230). On day 3 of differentiation, 25 μL of E6n containing 50 ng/ml FGF-2 and 200 nM LDN-193189 (Stemgent, 04-0074-02) was added to each well. […]", "data": [{"smiles": "c1ccc2c(Oc3nc(Nc4ccc(N5CCOCC5)cc4)c4ncn(C5CCCCC5)c4n3)cccc2c1", "note": "[PUR, 9H-Purin-6-amine, 9-cyclohexyl-N-[4-(4-morpholinyl)phenyl]-2-(1-naphthalenyloxy)-]", "values": [{"measurement": "ventral otic marker expression", "setting": "D20-D25 organoids", "result": "not sufficient"}, {"measurement": "expression of SHH pathway genes SULF1, LRP2, GAS1, PTCH1", "setting": "D20 otic progenitors", "result": "attenuated"}]}]}
